The target in one assay is T1, HDAC3 (Homo sapiens, UniProt O15379).
T1 construct: Recombinant, full-length HDAC protein (BPS Biosciences) was incubated with fluorophore conjugated substrate; purchased BPS Biosciences
Briefly: In vitro HDAC enzyme inhibition assay, HDAC3. Type of assay: biochemical. As to conditions: for HDAC3/HDAC6 in vitro selectivity: ratio of IC50 for HDAC3 relative to that of HDAC6; for IC50: recombinant full-length HDAC3, substrate MAZ1600 9 μM. As for the experimental part: (§1) In vitro Histone Deacetylase enzyme assays were performed using Class I (isoforms: HDAC1, HDAC2, HDAC3 and HDAC8), class IIa (isoforms: HDAC4, HDAC5, HDAC7 and HDAC9) and class IIb (isoform HDAC6).
(§2) HDAC activities were determined in vitro with an optimized homogenous assay performed in a 384-well plate. Recombinant, full-length HDAC protein (BPS Biosciences) was incubated with fluorophore conjugated substrate, MAZ1600 and MAZ1675, at Km=[S]. […] Reactions were performed in assay buffer (50 mM HEPES, 100 mM KCl, 0.001% Tween-20, 0.05% BSA, 200 μM tris(2-carboxyethyl)phosphine (TCEP), pH 7.4) and followed for fluorogenic release of 7-amino-4-methylcoumarin from substrate upon deacetylase and trypsin enzymatic activity. Fluorescence measurements were obtained every five minutes using a multilabel plate reader and plate-stacker (Envision; Perkin-Elmer). Each plate was analyzed by plate repeat, and the first derivative within the linear range was imported into analytical software (Spotfire DecisionSite and GraphPad Prism). Replicate experimental data from incubations with inhibitor were normalized to controls.

Another assay concerns the target T2, HDAC4 (Homo sapiens, UniProt P56524).
T2 construct: Recombinant, full-length HDAC protein (BPS Biosciences) was incubated with fluorophore conjugated substrate; purchased BPS Biosciences
Briefly: In vitro HDAC enzyme inhibition assay, HDAC4. Format: biochemical. As to conditions: for HDAC4/HDAC6 in vitro selectivity: ratio of IC50 for HDAC4 relative to that of HDAC6; for IC50: recombinant full-length HDAC4, substrate MAZ1675 10 μM; for selectivity toward HDAC6 compared to HDAC4 (in words): tested in vitro. As for the experimental part: as §1, §2

A further assay concerns the target T3, HDAC6 (Homo sapiens, UniProt Q9UBN7).
T3 construct: Recombinant, full-length HDAC protein (BPS Biosciences) was incubated with fluorophore conjugated substrate; purchased BPS Biosciences
T3 sequence (Q9UBN7 1-1215): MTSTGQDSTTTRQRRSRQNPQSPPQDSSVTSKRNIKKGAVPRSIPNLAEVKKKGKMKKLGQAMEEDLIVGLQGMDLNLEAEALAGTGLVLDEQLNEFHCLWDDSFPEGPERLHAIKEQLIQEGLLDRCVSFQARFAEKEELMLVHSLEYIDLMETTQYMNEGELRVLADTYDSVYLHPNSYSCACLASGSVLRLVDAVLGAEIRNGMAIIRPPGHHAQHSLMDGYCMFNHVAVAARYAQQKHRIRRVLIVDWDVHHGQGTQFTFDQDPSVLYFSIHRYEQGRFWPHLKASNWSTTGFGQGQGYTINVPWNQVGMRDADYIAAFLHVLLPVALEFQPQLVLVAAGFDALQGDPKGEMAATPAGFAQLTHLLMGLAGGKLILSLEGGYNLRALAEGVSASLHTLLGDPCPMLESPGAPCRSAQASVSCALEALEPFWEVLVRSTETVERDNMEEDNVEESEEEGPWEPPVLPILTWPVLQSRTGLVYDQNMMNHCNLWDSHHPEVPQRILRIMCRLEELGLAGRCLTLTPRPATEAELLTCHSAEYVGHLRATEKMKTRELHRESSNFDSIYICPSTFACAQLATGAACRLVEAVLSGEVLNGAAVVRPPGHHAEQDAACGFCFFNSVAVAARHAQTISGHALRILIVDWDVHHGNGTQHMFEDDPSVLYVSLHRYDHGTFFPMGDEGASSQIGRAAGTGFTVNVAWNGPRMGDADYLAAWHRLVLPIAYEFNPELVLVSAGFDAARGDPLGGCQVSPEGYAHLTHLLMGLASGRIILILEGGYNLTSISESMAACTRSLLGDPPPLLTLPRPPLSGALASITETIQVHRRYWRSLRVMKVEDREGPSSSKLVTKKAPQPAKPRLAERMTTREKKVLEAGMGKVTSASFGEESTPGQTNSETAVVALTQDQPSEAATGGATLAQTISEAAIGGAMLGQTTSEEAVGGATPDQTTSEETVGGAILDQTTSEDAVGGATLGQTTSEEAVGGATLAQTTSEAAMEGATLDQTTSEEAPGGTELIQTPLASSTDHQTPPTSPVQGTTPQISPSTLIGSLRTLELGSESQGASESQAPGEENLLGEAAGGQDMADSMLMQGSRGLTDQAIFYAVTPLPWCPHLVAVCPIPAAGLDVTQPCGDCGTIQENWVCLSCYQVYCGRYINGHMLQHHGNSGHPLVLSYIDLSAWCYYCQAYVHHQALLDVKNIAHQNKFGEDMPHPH
Briefly: In vitro HDAC enzyme inhibition assay, HDAC6. Type of assay: biochemical. Conditions: recombinant full-length HDAC6, substrate MAZ1600 9 μM. In outline:
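Deacetylase activity of full-length recombinant HDAC assessed via trypsin-coupled AMC release from substrate at Km concentration, pH 7.4 buffer with TCEP. Kinetic fluorescence slopes were normalized to controls.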

In the next assay the target is T4, HDAC7 (Homo sapiens, UniProt Q8WUI4).
T4 construct: Recombinant, full-length HDAC protein (BPS Biosciences) was incubated with fluorophore conjugated substrate; purchased BPS Biosciences
T4 sequence (Q8WUI4 1-952): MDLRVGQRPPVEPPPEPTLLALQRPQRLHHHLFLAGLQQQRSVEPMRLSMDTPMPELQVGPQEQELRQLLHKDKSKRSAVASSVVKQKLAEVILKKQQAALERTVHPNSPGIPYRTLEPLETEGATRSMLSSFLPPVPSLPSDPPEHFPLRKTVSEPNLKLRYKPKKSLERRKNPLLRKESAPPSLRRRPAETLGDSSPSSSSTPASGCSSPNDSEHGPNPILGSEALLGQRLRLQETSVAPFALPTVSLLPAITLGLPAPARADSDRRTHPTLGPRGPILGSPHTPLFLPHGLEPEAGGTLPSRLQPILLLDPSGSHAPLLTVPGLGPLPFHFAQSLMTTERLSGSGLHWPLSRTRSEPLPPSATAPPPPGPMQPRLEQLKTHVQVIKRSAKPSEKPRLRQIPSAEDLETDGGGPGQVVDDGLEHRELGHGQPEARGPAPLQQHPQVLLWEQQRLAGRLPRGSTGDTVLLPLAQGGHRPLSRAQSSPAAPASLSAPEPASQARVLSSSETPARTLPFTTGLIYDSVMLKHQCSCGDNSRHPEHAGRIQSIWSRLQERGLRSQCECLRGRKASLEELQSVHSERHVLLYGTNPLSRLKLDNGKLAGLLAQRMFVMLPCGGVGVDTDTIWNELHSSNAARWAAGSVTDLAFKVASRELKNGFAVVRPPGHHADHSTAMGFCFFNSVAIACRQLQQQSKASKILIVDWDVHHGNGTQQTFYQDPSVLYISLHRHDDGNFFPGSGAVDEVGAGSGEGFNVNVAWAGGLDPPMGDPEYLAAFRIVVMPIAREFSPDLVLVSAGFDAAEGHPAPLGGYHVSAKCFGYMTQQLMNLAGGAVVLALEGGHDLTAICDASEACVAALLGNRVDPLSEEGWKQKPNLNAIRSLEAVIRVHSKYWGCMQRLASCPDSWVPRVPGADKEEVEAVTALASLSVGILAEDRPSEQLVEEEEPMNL
Description: In vitro HDAC enzyme inhibition assay, HDAC7. Format: biochemical. Conditions: for HDAC7/HDAC6 in vitro selectivity: ratio of IC50 for HDAC7 relative to that of HDAC6; for IC50: recombinant full-length HDAC7, substrate MAZ1675 22 μM. As for the experimental part:
as §1, §2

The next assay has as its system acetylated tubulin. Description: High-content image analysis of induction of acetylated tubulin in A549 cells. Conditions: for EC50: Homo sapiens, A549, 8 h, read-out: EC50 for half-maximal induction of acetylated tubulin (AcTubulin); for AcHistone/AcTubulin in cell selectivity toward HDAC6: ratio of EC50 acetylated histone to EC50 acetylated tubulin.

T1 sequence (O15379 whole entry): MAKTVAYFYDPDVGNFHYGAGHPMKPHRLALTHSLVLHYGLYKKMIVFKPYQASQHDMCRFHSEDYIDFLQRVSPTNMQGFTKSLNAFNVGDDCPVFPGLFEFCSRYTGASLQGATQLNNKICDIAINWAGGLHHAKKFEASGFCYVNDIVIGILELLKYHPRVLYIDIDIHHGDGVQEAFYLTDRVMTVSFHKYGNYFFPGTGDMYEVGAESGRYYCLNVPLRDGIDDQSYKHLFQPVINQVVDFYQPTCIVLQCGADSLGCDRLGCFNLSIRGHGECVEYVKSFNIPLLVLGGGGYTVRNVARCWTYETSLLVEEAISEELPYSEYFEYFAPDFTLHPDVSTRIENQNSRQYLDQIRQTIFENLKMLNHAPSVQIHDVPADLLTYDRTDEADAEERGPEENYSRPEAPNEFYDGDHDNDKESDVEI
T1 sequence (Q9Y618 395-489 partner limits assumed): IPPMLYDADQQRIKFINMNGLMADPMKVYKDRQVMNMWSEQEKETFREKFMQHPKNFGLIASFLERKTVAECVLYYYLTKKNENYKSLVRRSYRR
T2 sequence (P56524 whole entry): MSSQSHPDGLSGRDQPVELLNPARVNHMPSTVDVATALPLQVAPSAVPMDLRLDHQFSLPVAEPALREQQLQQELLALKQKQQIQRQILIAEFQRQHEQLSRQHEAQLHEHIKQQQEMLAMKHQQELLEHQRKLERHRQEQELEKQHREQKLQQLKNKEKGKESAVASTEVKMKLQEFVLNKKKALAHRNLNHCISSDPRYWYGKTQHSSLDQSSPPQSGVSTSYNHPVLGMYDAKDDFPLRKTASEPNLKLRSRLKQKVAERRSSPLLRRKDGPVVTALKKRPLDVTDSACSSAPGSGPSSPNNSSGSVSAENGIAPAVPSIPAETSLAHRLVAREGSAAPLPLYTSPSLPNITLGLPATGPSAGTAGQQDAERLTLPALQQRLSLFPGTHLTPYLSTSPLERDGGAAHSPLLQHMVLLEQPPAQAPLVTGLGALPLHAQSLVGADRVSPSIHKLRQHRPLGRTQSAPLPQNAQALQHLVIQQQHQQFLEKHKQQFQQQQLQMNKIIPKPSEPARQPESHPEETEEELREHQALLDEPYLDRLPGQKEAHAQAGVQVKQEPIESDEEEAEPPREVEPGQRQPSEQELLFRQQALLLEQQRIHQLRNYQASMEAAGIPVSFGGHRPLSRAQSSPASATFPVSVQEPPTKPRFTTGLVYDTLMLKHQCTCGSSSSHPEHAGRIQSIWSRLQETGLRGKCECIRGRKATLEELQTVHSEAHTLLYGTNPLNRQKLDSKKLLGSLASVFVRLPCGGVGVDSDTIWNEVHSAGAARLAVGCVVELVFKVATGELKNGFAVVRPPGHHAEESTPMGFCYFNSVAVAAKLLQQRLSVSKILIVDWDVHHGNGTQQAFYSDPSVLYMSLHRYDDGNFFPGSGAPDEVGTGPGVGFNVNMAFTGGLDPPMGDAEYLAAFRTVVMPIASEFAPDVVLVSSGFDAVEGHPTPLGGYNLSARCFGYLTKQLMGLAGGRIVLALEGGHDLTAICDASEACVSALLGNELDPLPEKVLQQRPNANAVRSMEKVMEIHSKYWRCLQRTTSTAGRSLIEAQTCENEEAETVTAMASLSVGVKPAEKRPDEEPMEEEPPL
Description for acetylated tubulin: Cells were treated with each test HDACi compound with an automated pin transfer instrument (Janus, Perkin Elmer) and incubated for 8 hours. […] Fixation solution was aspirated and 90 μL of washing solution (0.1% Triton X-100 in PBS) was added prior to 10 minute incubation at 4° C. Washing solution was aspirated and cells were incubated at 4° C. for about 1 hour in blocking solution (0.1% Triton X-100+2% BSA in PBS). Washing solution was aspirated, and cells were incubated for about 1 hour at 4° C. in primary antibody for acetylated-tubulin (Sigma T7451) and acetylated-histone (Cell Signaling #9441L) at a 1:1000 dilution in blocking solution. Primary antibody solution was aspirated, and cells were washed three times in 90 μL of washing solution. […] Secondary antibody and nuclear staining solution was aspirated and cells were washed three times in 90 μL of washing solution. After the third wash, 50 μL of PBS was added to each well. Image acquisition was done on a high content imaging microscope (ImageXpress Micro, Molecular Devices), and image analysis (MetaXpress, Molecular Devices) was performed to obtain average acetylated-tubulin and acetylated-histone signal per cell based on treatment. Replicate experimental data from incubations with inhibitor were normalized to DMSO controls.

In the case of `O=C(NO)c1ccc(Cn2c(=O)[nH]c3cc(Cl)ccc32)cc1` [B4, 4-((5-chloro-2-oxo-2,3-dihydro-1H-benzo[d]imidazol-1-yl)methyl)-N-hydroxybenzamide], the “HDAC3/HDAC6 in vitro selectivity” value at HDAC3 was 353. The IC50 (as a rule, the concentration at which inhibition is half-maximal) was found to be 8.92 nM on HDAC3, 639 nM on HDAC4, 0.0253 nM on HDAC6 and 79.6 nM at HDAC7. The “HDAC4/HDAC6 in vitro selectivity” value on HDAC4 was found to be 25301. The “HDAC7/HDAC6 in vitro selectivity” value on HDAC7 was 3153. Moreover, the EC50 (usually the concentration needed to bring the measured effect to its halfway point) in the assay with acetylated tubulin was 80.5 nM. Besides, the “AcHistone/AcTubulin in cell selectivity toward HDAC6” value with acetylated tubulin (A549 cells) was determined as 5.217.

With `O=C(NO)c1ccc(Cn2c(=O)[nH]c3cc(Br)ccc32)cc1` [B5, 4-((5-bromo-2-oxo-2,3-dihydro-1H-benzo[d]imidazol-1-yl)methyl)-N-hydroxybenzamide], at HDAC3, the “HDAC3/HDAC6 in vitro selectivity” value was 495 and the 50% inhibitory concentration (IC50) came out at 10.1 nM. Besides, at HDAC4, the “HDAC4/HDAC6 in vitro selectivity” value is recorded as 57687, the half-inhibitory concentration (IC50) was 1180 nM and the “selectivity toward HDAC6 compared to HDAC4 (in words)” value (“selectivity toward HDAC6 … (in words)” below) was “exceptionally high selectivity (Inhibitors with in vitro selectivity values for HDAC6 of at least 30,000 are considered to have exceptionally high selectivity toward HDAC6)”. In addition, the IC50 on HDAC6 amounted to 0.0205 nM. Moreover, at HDAC7, the “HDAC7/HDAC6 in vitro selectivity” value was found to be 9297 and the IC50 was found to be 190 nM. In addition, the concentration for a half-maximal effect (EC50) in the assay on acetylated tubulin was determined as 132 nM. In the assay with acetylated tubulin (A549 cells), the “AcHistone/AcTubulin in cell selectivity toward HDAC6” value is recorded as 6.398.

Consider `O=C(NO)c1ccc(Cn2c(=O)[nH]c3cc(C(F)(F)F)ccc32)cc1` [B6, N-hydroxy-4-((2-oxo-5-(trifluoromethyl)-2,3-dihydro-1H-benzo[d]imidazol-1-yl)methyl)benzamide], for which, at HDAC3, the “HDAC3/HDAC6 in vitro selectivity” value was determined as 2366 and the IC50 was found to be 14.7 nM. Further, at HDAC4, the “HDAC4/HDAC6 in vitro selectivity” value turned out to be 229041, the IC50 was found to be 1420 nM and the “selectivity toward HDAC6 … (in words)” value was “exceptionally high selectivity (Inhibitors with in vitro selectivity values for HDAC6 of at least 30,000 are considered to have exceptionally high selectivity toward HDAC6)”. The 50% inhibitory concentration (IC50) at HDAC6 was 0.00621 nM. Besides, on HDAC7, the “HDAC7/HDAC6 in vitro selectivity” value stood at 38222 and the IC50 worked out at 237 nM. The “levels of acetylated tubulin, dose response (in words)” value in the assay with acetylated tubulin (A549 cells, FIG. 11) is on record as “dose-dependent increase”. For the same molecule, the EC50 in the assay with acetylated tubulin is 48.5 nM. The “AcHistone/AcTubulin in cell selectivity toward HDAC6” value in the assay on acetylated tubulin (A549 cells) stood at 12.98.

As to `COc1ccc2c(c1)[nH]c(=O)n2Cc1ccc(C(=O)NO)cc1` [B7, N-hydroxy-4-((5-methoxy-2-oxo-2,3-dihydro-1H-benzo[d]imidazol-1-yl)methyl)benzamide], on HDAC3, the “HDAC3/HDAC6 in vitro selectivity” value stood at 1236 and the concentration for half-maximal inhibition (IC50) amounted to 31.8 nM. On HDAC4, the “HDAC4/HDAC6 in vitro selectivity” value turned out to be 60006, the IC50 was found to be 1540 nM and the “selectivity toward HDAC6 … (in words)” value is recorded as “exceptionally high selectivity (Inhibitors with in vitro selectivity values for HDAC6 of at least 30,000 are considered to have exceptionally high selectivity toward HDAC6)”. On HDAC6, the concentration for half-maximal inhibition (IC50) is 0.0257 nM. On HDAC7, the “HDAC7/HDAC6 in vitro selectivity” value came out at 15934 and the IC50 came to 410 nM. Further, the EC50 in the assay with acetylated tubulin stood at 154 nM. The “AcHistone/AcTubulin in cell selectivity toward HDAC6” value in the assay on acetylated tubulin (A549 cells) was 10.013.

As for `O=C(NO)c1ccc(Cn2nnc3ccccc32)cc1` [C1, 4-((1H-benzo[d][1,2,3]triazol-1-yl)methyl)-N-hydroxybenzamide], on HDAC3, the “HDAC3/HDAC6 in vitro selectivity” value is 10277 and the half-inhibitory concentration (IC50) is 164 nM. Moreover, at HDAC4, the “HDAC4/HDAC6 in vitro selectivity” value is listed as 66860, the IC50 stood at 1070 nM and the “selectivity toward HDAC6 … (in words)” value was “exceptionally high selectivity (Inhibitors with in vitro selectivity values for HDAC6 of at least 30,000 are considered to have exceptionally high selectivity toward HDAC6)”. For the same molecule, the IC50 at HDAC6 worked out at 0.016 nM. At HDAC7, the “HDAC7/HDAC6 in vitro selectivity” value came out at 9286 and the IC50 was 148 nM. For the same molecule, the EC50 with acetylated tubulin came to 2700 nM. In addition, in the assay on acetylated tubulin (A549 cells), the “AcHistone/AcTubulin in cell selectivity toward HDAC6” value is on record as 2.641.

Consider `O=C(NO)c1ccc(Cn2nnc3cc(F)ccc32)cc1` [C3, 4-((5-fluoro-1H-benzo[d][1,2,3]triazol-1-yl)methyl)-N-hydroxybenzamide], for which, on HDAC3, the “HDAC3/HDAC6 in vitro selectivity” value was determined as 19646 and the IC50 worked out at 516 nM. On HDAC4, the “HDAC4/HDAC6 in vitro selectivity” value worked out at 81082, the IC50 amounted to 2130 nM and the “selectivity toward HDAC6 … (in words)” value was “exceptionally high selectivity (Inhibitors with in vitro selectivity values for HDAC6 of at least 30,000 are considered to have exceptionally high selectivity toward HDAC6)”. In addition, the IC50 on HDAC6 was 0.0263 nM. Further, on HDAC7, the “HDAC7/HDAC6 in vitro selectivity” value amounted to 21126 and the concentration for half-maximal inhibition (IC50) is 555 nM. The EC50 in the assay on acetylated tubulin came out at 144 nM. Moreover, the “AcHistone/AcTubulin in cell selectivity toward HDAC6” value in the assay with acetylated tubulin (A549 cells) is listed as 10.4517.

For the origin of these results see patent US20150197497A1, “SELECTIVE INHIBITORS OF HISTONE DEACETYLASE ISOFORM 6 AND METHODS THEREOF” (DANA-FARBER CANCER INSTITUTE, INC., priority 2011, published 2015).
